Marks after values point to notes of the source that are not given here.
Legend:
Type in all cases: biochemical
[1] = Trolox equivalent antioxidant capacity (TEAC), ABTS
Procedure: The ABTS could serve as the free radical source. After the mixture reacted in the dark for 12 to 16 hours and generated stably blue-green ABTS, followed by adding 0.25 mL of various concentrations of sample solutions (i.e. pectin solution, PET-pectin solution, BHT solution or Vit. E solution listed in TABLE 2) and reacting for 10 minutes. And then, the light absorbance of those mixtures at 734 nm was detected by the spectrophotometer, and the result was listed in TABLE 4. Each data of TABLE 4 was referred to the mean of samples in at least or more than triplicate. […] E analogue; Sigma, St. Louis, Mo., U.S.A.) standard curve established by using different concentrations of trolox as a reference. The results of TEAC are shown in FIG. 2 and the fourth column of TABLE 4.

[2] = Reducing power (Prussian blue, OD700 nm)
Procedure: The reducing power of PET-pectin was determined by using the yield of Prussian blue [ferric ferrocyanide; […] In brief, three-valent […] ion (Fe^3+) of red blood salt (potassium […]; […] And then, the light absorbance of Prussian blue at 700 nm was detected to evaluate the reducing power, in which the higher light absorbance was referred to the stronger reducing power. This EXAMPLE could use the conventional method. The PET-pectin was prepared to various concentrations, each 20 μL aliquot of the sample solutions (i.e. pectin solution, PET-pectin solution, BHT solution or Vit. E solution listed in TABLE 2) was added with 50 μL of 0.2 M phosphate buffer (pH 6.6) containing 1% red blood salt [K3Fe(CN)6], incubated in water bath at 50° C. for 20 minutes and added with 50 μL of 10% trichloroacetic acid (TCA) solution. […] The absorbance at 700 nm is measured by the spectrophotometer and listed in the fifth column of TABLE 4, in which the higher light absorbance is referred to the stronger reducing power. Each data of TABLE 4 is referred to the mean of samples in at least or more than triplicate.

[3] = DPPH radical scavenging activity
Procedure: 4 mL of sample solutions (i.e. pectin solution, PET-pectin solution, BHT solution or Vit. […] And then, the light absorbance of those mixtures at 517 nm was detected by the spectrophotometer, and their DPPH radical scavenging activities (%) were calculated according to the following formula (I), in which the lower light absorbance was referred to the stronger DPPH radical scavenging activity. Each data of TABLE 4 is referred to the mean of samples in triplicate and the result is listed in the third column of TABLE 4. [formula]

SMILES | TEAC (mM Trolox) ([1]; concentration 0.01 mg/mL) | TEAC (mM Trolox) ([1]; concentration 0.10 mg/mL) | Reducing Power (OD700 nm) ([2]; concentration 0.01 mg/mL) | Reducing Power (OD700 nm) ([2]; concentration 0.10 mg/mL) | DPPH radical scavenging activity(%) ([3]; concentration 0.01 mg/mL) | DPPH radical scavenging activity(%) ([3]; concentration 0.10 mg/mL)
Cc1cc(C(C)(C)C)c(O)c(C(C)(C)C)c1 [Butylated hydroxytoluene (BHT), Butylated hydroxytoluene] | 0.4 ± 0.0^d mM Trolox | 1.3 ± 0.2^c mM Trolox | 0.5 ± 0.0^d OD700 nm | 1.7 ± 0.1^b OD700 nm | 5.2 ± 0.4^e % | 49.2 ± 2.9^c %
Cc1c(C)c2c(c(C)c1O)CC[C@@](C)(CCC[C@H](C)CCC[C@H](C)CCCC(C)C)O2 [α-tocopherol (Vit. E), α-tocopherol] | 0.5 ± 0.0^d mM Trolox | 3.5 ± 0.1^b mM Trolox | 0.6 ± 0.0^d OD700 nm | 2.5 ± 0.0^a OD700 nm | 46.1 ± 0.4^d % | 96.8 ± 0.5^a %

From patent US9113650B2, “Pectic enzyme treated pectin, method of producing the same and application thereof” (NATIONAL PINGTUNG UNIVERSITY OF SCIENCE AND TECHNOLOGY, priority 2011, dated 2015)
